Experimental data published in patent US9220706B2, “Inhibition of leukemic stem cells by PP2A activating agents” (Ohio State Innovation Foundation, priority 2012, dated 2015).

Experiments:
β-catenin = β-catenin immunofluorescence; assay type: cell-based, human
Text: (§1) Immunofluorescence and proximity ligation assay. CD34^+/CD38^− cells from CML patient samples or LSK cells derived from induced leukemic mice were sorted, treated in liquid culture with the indicated drugs and cytospun onto glass slides. Slides were fixed in 3.7% formaldehyde, penneabilized with 0.05% Triton X-100, and stained with an Anti-®-catenin primary antibody (Cell signaling), a secondary goat F(ab′) anti-rabbit conjugated to Alexa Fluor 647, and the nuclear stain DAPI (Invitrogen); slides were mounted with Slowfade antifade reagent (Invitrogen). Microphotographs were obtained with a Zeiss LSM 510 confocal laser-scanning microscope with C-Apochromat 63/1.2 W objective. A minimum of three fields for each slide were acquired. For the Proximity Ligation Assay (PLA) CD34+/CD38− CML cells were treated, fixed, and permeabilized as described above. The slides were then simultaneously stained with a mix of mouse anti-PP2A (Millipore) and rabbit anti-SET (Globozyme) antibodies. The PLA procedure (Duolink; Olink Bioscience) was performed according to manufacturer instructions. An average of 20 z-stack ([…]) were captured with a Zeiss LSM 510 confocal laser-scanning microscope with C-Apochromat 63/1.2 W objective; at least three fields/slide were acquired. Three-dimensional projections were generated and positive signals/cell were calculated by ImageJ software (NIH).

SET-PP2A interaction = molecular target: T1, SET-PP2A interaction (Homo sapiens, UniProt Q01105); test: Proximity ligation assay, SET-PP2A association; assay type: cell-based; details: CD34^+/CD38^− CML cells, 24 h
T1 construct: untreated and FTY720-treated (24 h) CD34^+/CD38^− CML cells; endogenous in cells; host or cells: CD34+/CD38- CML patient cells
Text: as §1

[1] = system: GFP+ leukemic LSK and LT-HSC from SCLtTA/BCR-ABL1/GFP mice; test: BM serial transplantation, transgenic BCR-ABL1 mice; assay type: in vivo, mouse
Procedure: BM Serial Transplantation Assays and In Vivo Effect of FTY720 on LT-HSCs from Transgenic BCR-ABL1 Mice. 2×10^6 GFP+ BM or 3×10^3 GFP+ BM-derived LSK (Lin^−/Sca-1^+/Kit^+) cells from 4-week induced leukemic SCLtTA/BCR-ABL1/GFP mice were transplanted into lethally-irradiated FVB/N mice. After the onset of neutrophilia (4 weeks post-transplant), mice were FTY720- (10 mg/kg/day, i.p.) or vehicle-treated for 4 weeks. The number of total GFP+ cells and GFP+ long-term (LT)-HSCs (Lin^−/Sca-1^+/Kit^+/FLt3^−/CD150^+/CD48^−) was measured with a LSRII flow cytometer. BM cells (2×10^6, 1×10^6 and 0.5×10^6) from treated and untreated animals (8 mice/group) mixed with 2×10^5 FVB/N BM cells were transplanted into lethally-irradiated secondary recipients. Engraftment (GFP^+ in PB>0.1%) was monitored every 4 weeks, and LT-HSC frequency was determined 16 weeks after secondary transplant using Poisson statistics. All animal studies were IACUC approved.

[2] = system: CFSE^max/CD34^+ CML cells; test: CFSE-mediated tracking of quiescent cells, CML; assay type: cell-based, human; details: CFSE-labeled CD34^+ CML cells; FTY720 at 2.5 μM
Procedure: (§2) CFSE-mediated tracking of cell division. Carboxyfluorescein diacetate succinimidyl diester (CFSE)-stained cells (CellTrace CFSE Proliferation Kit: Invitrogen) were cultured in the presence of the indicated drugs (dosed at time zero and at day three), and the cells were harvested after 3 or 6 days in culture, and stained with anti-CD34 PE, Annexin-V V450, and the viability stain 7-AAD (BD Bioscience) to determine the number of viable quiescent cells (CFSEmax/CD34^+/7-AAD− cells) and the percentage of quiescent and apoptosis-committed cells (CFSEmax/CD34+/Annexin V+/7-AAD±). Cells were sorted into dividing and quiescent populations for Western blot analysis. For assessment of mouse quiescent leukemic HSCs, Lin- cells from 8 week-induced SCLtTA/BCR-ABL1 mice were CFSE-stained and used as described above. Quiescent cells (CFSE^max/CD34^+) were reported as a fraction of the initial number of CD34^+ cells.

BCR-ABL1 = test: Intracellular flow staining of active BCR-ABL1 (pABL); assay type: cell-based, human
Procedure: Flow cytontetric analysis and sorting of HSCs. Primary CD34^+ cells were isolated by magnetic cell sorting (CD34 MultiSort; Miltenyi Biotec) and kept in IMDM supplemented with 30% FBS, 2 mM Lglutamine, rhIL-3 (20 ng/ml), rhIL-6 (20 ng/ml), rhFlt-3 ligand (100 ng/ml), and rhKL (100 ng/ml) (Stem Cell Technologies). The CD34+ fraction derived from the BM of healthy donors and the PB or BM from CML patients was stained with anti-CD34 FITC or PE, and anti-CD38 PE-Cy7 (BD Biosciences). The Lin− fraction of murine mononuclear cells was stained with anti-Sca-1 PeCy7 (BD Biosciences) and anti-c-kit APC-AlexaFluor750 (eBioscience), The CD34^+/CD38^− or the Lin−/Sca-1+/c-Kit+ (LSK) fractions were sorted by fluorescence-activated cell sorting with a FACS Aria II instrument (BD Biosciences). […]

[3] = system: Lin^− SCLtTA-BCR-ABL1 cells; test: CFSE-mediated tracking of quiescent cells, mouse leukemic; assay type: cell-based; details: 2.5 μM FTY720
Procedure: as §2

[4] = FTY720 10 mg/kg/day i.p., 4-week treatment

T1 sequence (Q01105 1-277 isoform Q01105-2): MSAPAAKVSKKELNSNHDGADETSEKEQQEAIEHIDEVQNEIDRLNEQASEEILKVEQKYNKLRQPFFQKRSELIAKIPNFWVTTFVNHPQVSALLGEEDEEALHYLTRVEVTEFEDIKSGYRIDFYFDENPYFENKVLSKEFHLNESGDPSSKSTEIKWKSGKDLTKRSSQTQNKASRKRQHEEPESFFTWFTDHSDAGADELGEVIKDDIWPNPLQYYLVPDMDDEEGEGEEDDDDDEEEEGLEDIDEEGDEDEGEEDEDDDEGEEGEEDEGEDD

With `CCCCCCCCc1ccc(CCC(N)(CO)CO)cc1` [FTY720] as the molecule, how does the β-catenin degradation (β-catenin; CD34^+/CD38^− CML, leukemic LSK, and 32D-BCR/ABL cells) read?
The β-catenin degradation was “induced β-catenin degradation”.

And the β-catenin expression (β-catenin; Ph^+ CD34^+/CD38^− cells)?
The β-catenin expression was “markedly decreased”.

What about the SET-PP2A interaction (SET-PP2A interaction) of the same molecule?
Its SET-PP2A interaction is “disrupts the SET-PP2A interaction”.

And the “secondary recipients with leukemic engraftment” value ([1]; BM from treated mice, Table I Exp 1)?
The value was 25%.

What about the “Engraftment-positive at 16 weeks (>0.1% GFP+)” value ([1]; Experiment #1, cell dose in 2nd recipients 2,000,000) of the same molecule?
The value was 2/8.

And the LT-HSC frequency ([1]; Experiment #2, Poisson statistics, 16 weeks after secondary transplant)?
Its LT-HSC frequency is 0.45 × 10^−6.

What about the “Engraftment-positive at 16 weeks (>0.1% GFP+)” value ([1]; Experiment #2, cell dose in 2nd recipients 500,000) of the same molecule?
Its value is 0/8.

What about the “Engraftment-positive at 16 weeks (>0.1% GFP+)” value ([1]; Experiment #2, cell dose in 2nd recipients 1,000,000) of the same molecule?
Its value is 3/7.

What about the “Engraftment-positive at 16 weeks (>0.1% GFP+)” value ([1]; Experiment #2, cell dose in 2nd recipients 2,000,000) of the same molecule?
Its value is 5/7.

And the “reduction of GFP^+ (leukemic) LSK” value [1, 4]?
The value was at least 50%.

And the “reduction of splenic and/or BM GFP^+ LT-HSC” value [1, 4]?
Its value is at least 70%.

What about the “reduction of frequency of leukemic LT-HSCs” value ([1]; limiting dilution analysis, Table I Exp. 2) of the same molecule?
Its value is about 80%.

And the “decrease in CFSE^max (quiescent) CML HSCs” value [2]?
The value was 60-75%.

What about the “inhibition of BCR-ABL1 activity (pABL levels)” value (BCR-ABL1; bulk CD34 CML cells) of the same molecule?
The value was “occurred in the bulk”.

What about the “inhibition of BCR-ABL1 activity (pABL levels)” value (BCR-ABL1; quiescent fraction (CFSE^max) of CD34 CML cells) of the same molecule?
Its value is “not in the quiescent fraction”.

What about the “decrease in CFSE^max HSCs” value [3] of the same molecule?
Its value is 70-90%.
